Laboratory results published in patent US6488967B1, “Gastric acid secretion” (Phytopharm PLC, priority 1999, dated 2002).
Where “and” joins values, the source holds several entries; their conditions need not be identical. Equal values may be shown once. Entries after “also recorded” stand apart in the source; their conditions may differ.

Assays:
[1] = test system: aspirin-induced damage to the stomach; assay: aspirin-induced damage to the stomach in the rat; format: in vivo; design: key to Gastric damage score (individual rat) / Gastric damage score, Mean: small haemorrhage 1, large haemorrhage 2, small ulcer 3, large ulcer 4 points; details: for average reduction in gastric damage: vs control group; for Gastric damage score, Mean / Gastric damage score (individual rat): aspirin about 600 mg/kg orally, after 5 hours; for Gastric damage score, Mean: mean of eight rats; for Gastric damage score (individual rat): single animals
Procedure: Three groups each containing eight rats were given aspirin in 0.5% CMC orally at a dose of about 600 mg/kg (1.0 ml of 60 mg/ml). The first group (the control group) was additionally given 0.5% CMC. The second group was given compound P57AS3 at a dose rate of 100 mg/kg; and the third group (comparative group) was given cimetidine at a dose rate of 20 mg/kg. […] Damage was assessed on a scale in which each small haemorrhage scored one point; each large haemorrhage scored two points; each small ulcer scored three points; and each large ulcer scored four points.

[2] = test system: gastric acid secretion; assay: gastric acid secretion in the pylorus-ligated rat; format: in vivo
Procedure: The effect of both the spray dried extract (sap from Hoodia gordonii)-referred to hereinafter as […]-and the purified compound P57AS3 were examined for effects on gastric acid secretion in the pylorus-ligated rat. Male Sprague-Dawley derived CD rats, 175-230 g, were used. On the day before the test, rats were outfitted with stainless steel tail cups to prevent coprophagy, housed individually with water allowed ad lib, and fasted overnight (18 hr). In one test the […] (5 or 50 mg/kg), or cimetidine (10 mg/kg) or vehicle (water) was orally administered to the rats immediately before fasting. Water was removed 30 minutes prior to ligation on the morning of the test. […] In a second experiment, purified compound P57AS3 was administered intraduodenally (i.d.) at 1 or 10 mg/kg at the time of the pylorus ligation. In this experiment with intraduodenal administration of P57AS3, vehicle (DMSO), cimetidine (10 mg/kg) or P57AS3 (1 or 10 mg/kg) was administered immediately after ligation. The incisions were then closed with staples. In the experiments with subcutaneous administration of P57, vehicle (DMSO), cimetidine (10 mg/kg) or P57, 10 or 30 mg/kg were injected subcutaneously in the nape of the neck immediately after the incisions were closed. Two hours after ligation, the rats were killed, the contents of each stomach collected and cleaned by centrifugation (30 minutes at 2000×g), and the volume of gastric fluid in each stomach was determined. Using a Radiometer pH meter and autotitrator, the pH and acid concentration of each gastric sample was determined by titration to pH 7 with 0.1N NaOH. Results are expressed as μeq/hr/100 g (body weight) and % vehicle control.

[3] = test system: spontaneously beating guinea pig right atria; assay: isolated tissue: spontaneously beating right atria; details: concentrations ≦10 μM
Procedure: (§1) Purified P57AS3 was examined for binding affinity to a variety of receptors, channels, and uptake sites in vitro. […], In isolated tissue studies, P57AS3 at concentrations ≦10 μM had no effect on the rate of spontaneously beating guinea pig right atria or on the force of contraction of electrically stimulated left atria. […] P57AS3 had no effect on resting tension of isolated guinea pig gallbladder, ileum or trachea, or on CCK octapeptide-induced contractions of the gallbladder (CCK-A receptor mediated), histamine induced contractions of the guinea pig ileum (H1 receptor mediated), or acetylcholine-induced contractions of the guinea pig ileum (M3 receptor mediated).

[4] = test system: electrically stimulated left atria; assay: isolated tissue: electrically stimulated left atria; design: species or system guinea pig
Procedure: as §1

[5] = test system: isolated guinea pig gallbladder; assay: isolated tissue: resting tension of gallbladder
Procedure: as §1

[6] = test system: isolated guinea pig ileum; assay: isolated tissue: resting tension of ileum
Procedure: as §1

[7] = test system: isolated guinea pig trachea; assay: isolated tissue: resting tension of trachea
Procedure: as §1

[8] = molecular target: T1, CCK-A receptor (Cavia porcellus, UniProt Q63931); assay: CCK octapeptide-induced contractions of the gallbladder; design: species or system guinea pig; details: CCK-A receptor mediated
T1 construct: P57AS3 had no effect on resting tension of isolated guinea pig gallbladder, ileum or trachea; from tissue; host or cells: isolated guinea pig gallbladder
T1 sequence (Q63931 1-430): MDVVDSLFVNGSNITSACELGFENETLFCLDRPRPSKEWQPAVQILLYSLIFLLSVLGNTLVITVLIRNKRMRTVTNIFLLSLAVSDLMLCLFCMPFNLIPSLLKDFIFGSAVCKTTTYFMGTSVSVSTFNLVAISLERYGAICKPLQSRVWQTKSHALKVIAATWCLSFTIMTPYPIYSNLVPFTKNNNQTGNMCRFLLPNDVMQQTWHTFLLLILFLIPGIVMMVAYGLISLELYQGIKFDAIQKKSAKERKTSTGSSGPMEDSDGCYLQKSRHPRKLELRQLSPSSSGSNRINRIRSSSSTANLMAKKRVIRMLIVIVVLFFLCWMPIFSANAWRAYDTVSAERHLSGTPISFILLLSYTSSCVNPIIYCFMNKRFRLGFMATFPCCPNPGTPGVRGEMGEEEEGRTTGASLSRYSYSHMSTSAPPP
Procedure: as §1

[9] = molecular target: T2, H1 receptor (Cavia porcellus, UniProt P31389); assay: histamine induced contractions of the guinea pig ileum; details: H1 receptor mediated
T2 construct: histamine induced contractions of the guinea pig ileum (H1 receptor mediated); from tissue; host or cells: isolated guinea pig ileum
Procedure: as §1

[10] = molecular target: T3, M3 receptor (Cavia porcellus, UniProt H0W1Z3); assay: acetylcholine-induced contractions of the guinea pig ileum; details: M3 receptor mediated
T3 construct: acetylcholine-induced contractions of the guinea pig ileum (M3 receptor mediated); from tissue; host or cells: isolated guinea pig ileum
Procedure: as §1

[11] = test system: M3 receptor; assay: carbachol-induced contractions of the guinea pig trachea; details: M3 receptor mediated, concentrations ≧1 μM
Procedure: as §1

[12] = 10 mg/kg sc, 1 of 3 experiments

T3 sequence (H0W1Z3 1-590): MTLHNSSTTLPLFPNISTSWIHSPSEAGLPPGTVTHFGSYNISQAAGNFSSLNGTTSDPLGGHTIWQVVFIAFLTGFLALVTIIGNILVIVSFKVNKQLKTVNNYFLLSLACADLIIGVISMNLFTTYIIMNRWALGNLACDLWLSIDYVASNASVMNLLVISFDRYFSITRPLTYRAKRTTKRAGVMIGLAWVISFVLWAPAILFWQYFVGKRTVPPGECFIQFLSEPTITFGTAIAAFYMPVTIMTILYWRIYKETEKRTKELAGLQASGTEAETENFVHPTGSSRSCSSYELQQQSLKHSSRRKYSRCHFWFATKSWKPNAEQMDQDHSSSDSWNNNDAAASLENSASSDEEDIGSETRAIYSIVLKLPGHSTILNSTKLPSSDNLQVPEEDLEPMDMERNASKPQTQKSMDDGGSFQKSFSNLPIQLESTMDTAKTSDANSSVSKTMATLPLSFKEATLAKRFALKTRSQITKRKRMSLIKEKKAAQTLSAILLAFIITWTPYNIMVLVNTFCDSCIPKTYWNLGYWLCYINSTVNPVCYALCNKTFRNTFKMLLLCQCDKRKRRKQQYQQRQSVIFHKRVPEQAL
T2 sequence (P31389 whole entry): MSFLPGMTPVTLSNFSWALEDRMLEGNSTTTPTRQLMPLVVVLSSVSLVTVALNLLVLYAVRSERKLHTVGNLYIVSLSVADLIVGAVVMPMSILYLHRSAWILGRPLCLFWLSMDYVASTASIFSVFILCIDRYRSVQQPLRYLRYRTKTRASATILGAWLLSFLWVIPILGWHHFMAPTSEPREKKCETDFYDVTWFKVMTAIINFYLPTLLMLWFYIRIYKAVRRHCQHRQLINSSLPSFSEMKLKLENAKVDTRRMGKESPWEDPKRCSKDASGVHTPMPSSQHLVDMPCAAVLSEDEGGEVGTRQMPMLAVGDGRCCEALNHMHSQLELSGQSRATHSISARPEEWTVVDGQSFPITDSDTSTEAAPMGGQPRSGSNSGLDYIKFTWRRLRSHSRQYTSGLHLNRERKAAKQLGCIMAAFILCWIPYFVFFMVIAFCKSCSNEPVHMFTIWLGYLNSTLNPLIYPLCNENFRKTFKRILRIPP

CN/C(=N/CCSCc1nc[nH]c1C)NC#N [Cimetidine, cimetidine, reference compound] was tested, and the “average reduction in gastric damage” value ([1]; 20 mg/kg) was 93.2%, the “Gastric damage score, Mean” value ([1]; oral 20 mg/kg) was 0.50 and the “Gastric damage score (individual rat)” value ([1]; oral 20 mg/kg) was 0 (7×) and 4.

In the case of C/C=C(\C)C(=O)O[C@@H]1C[C@H]2[C@@H](CC=C3C[C@@H](O[C@H]4C[C@H](OC)[C@H](O[C@H]5C[C@H](OC)[C@H](O[C@@H]6O[C@H](C)[C@@H](O)[C@H](OC)[C@H]6O)[C@@H](C)O5)[C@@H](C)O4)CC[C@@]32C)[C@@]2(O)CC[C@H](C(C)=O)[C@@]12C [P57AS3, 3-O-[-β-D-thevetopyranosyl-(1→4)-β-D-cymaropyranosyl-(1→4)-β-D-cymaropyranosyl]-12β-O-tigloyloxy-14-hydroxy-14β-pregn-5-en-20-one], the “average reduction in gastric damage” value ([1]; 100 mg/kg) is reported as 91.5%, the “Gastric damage score, Mean” value ([1]; oral 100 mg/kg) is reported as 0.63 and the “Gastric damage score (individual rat)” value ([1]; oral 100 mg/kg) is reported as 0 (6×) and 3 and 2. The “effect on gastric acid secretion” value ([2]; 1 mg/kg i.d. at the time of pylorus ligation) was “no effect”, the “decrease of acid secretion (acid output)” value ([2]; 10 mg/kg i.d. at the time of pylorus ligation) was 88% and the “effect on gastric acid secretion” value [2, 12] was “significant decrease”. The “reduction of gastric acid secretion” value [2, 12] was 43%, the “effect on gastric acid output” value ([2]; 10 mg/kg sc, 2 of 3 experiments) was “not significantly different from vehicle-treated controls; also recorded: no effect” and the “effect on gastric acid output” value ([2]; 30 mg/kg sc, one experiment) was “not significantly different from vehicle-treated controls; also recorded: no effect”. For the same molecule, the “Acid Output % Control mean ± sd” value ([2]; Exp. II, 1 mg/kg id) was 109.0 ± 37.8 % Control, the “Acid Output % Control mean ± sd” value ([2]; Exp. II, 10 mg/kg id) was 12.4 ± 1.1 % Control and the “Acid Output % Control mean ± sd” value ([2]; Exp. III, 10 mg/kg sc) was 48.9 ± 29.2 % Control. The “Acid Output % Control mean ± sd” value ([2]; Exp. IV, 10 mg/kg sc) was 74.0 ± 38.0 % Control, the “Acid Output % Control mean ± sd” value ([2]; Exp. V, 10 mg/kg sc) was “*57.1 ± 19.8 % Control” and the “Acid Output % Control mean ± sd” value ([2]; Exp. VI, 30 mg/kg sc) was 63.7 ± 17.3 % Control. The “effect on the rate of spontaneously beating right atria” value [3] was “no effect”, the “effect on basal tension of electrically stimulated left atria” value ([4]; concentrations of 1 μM and higher) was “intermittent and transient elevations” and the “effect on the force of contraction of electrically stimulated left atria” value ([4]; concentrations ≦10 μM) was “no effect”. The “effect on resting tension of gallbladder” value [5] was “no effect”, the “effect on resting tension of ileum” value [6] was “no effect” and the “effect on resting tension of trachea” value [7] was “no effect”. For the same molecule, the “effect on CCK octapeptide-induced contractions of the gallbladder” value [8] was “no effect”, the “effect on histamine induced contractions of the ileum” value [9] was “no effect” and the “effect on acetylcholine-induced contractions of the ileum” value [10] was “no effect”. The “effect on carbachol-induced contractions of the trachea” value [11] was “noncompetitively inhibited”.
